Results as given in ChEMBL document CHEMBL1138648, “Synthesis of new N-(2-(trifluoromethyl)pyridin-4-yl)anthranilic acid derivatives and their evaluation as anticancer agents” (2004).

Experiments:
Type in all cases: functional
HOP-92 = assay: Growth inhibitory activity against non small cell lung cancer HOP-92 cell line was determined; conditions: Homo sapiens
MCF7 [1] = assay: In vitro percent of proliferation of vehicle treated MCF-7 human breast cell lines was determined at 0.0010 M concentration
SNB-19 = assay: Growth inhibitory activity against CNS cancer SNB-19 cell line was determined; conditions: Homo sapiens
COLO 205 = assay: Growth inhibitory activity against colon cancer COLO 205 cell line was determined; conditions: Homo sapiens
M14 = assay: Growth inhibitory activity against Melanoma M14 cell line was determined; conditions: Homo sapiens
HT-29 = assay: Growth inhibitory activity against colon cancer HT-29 cell line was determined; conditions: Homo sapiens
Hs-578T = assay: Growth inhibitory activity against Breast cancer HS 578T cell line was determined; conditions: Homo sapiens
SW-620 = assay: Growth inhibitory activity against colon cancer SW-620 cell line was determined; conditions: Homo sapiens
SF-268 [2] = assay: In vitro percent of proliferation of vehicle treated SF-268 human CNS cell lines was determined at 0.0010 M concentration
NCI-H460 [3] = assay: In vitro percent of proliferation of vehicle treated NCI-H460 human lung cell lines was determined at 0.0010 M concentration
TK-10 = assay: Growth inhibitory activity against Renal cancer TK-10 cell line was determined; conditions: Homo sapiens
PC-3 = assay: Growth inhibitory activity against Prostate cancer PC-3 cell line was determined; conditions: Homo sapiens
HCT-15 = assay: Growth inhibitory activity against colon cancer HCT-15 cell line was determined; conditions: Homo sapiens
RPMI-8226 = assay: Growth inhibitory activity against Leukemia RPMI-8226 cell line was determined; conditions: Homo sapiens
KM12 = assay: Growth inhibitory activity against colon cancer KM12 cell line was determined; conditions: Homo sapiens
HCT-116 = assay: Growth inhibitory activity against colon cancer HCT116 cell line was determined; conditions: Homo sapiens
ACHN = assay: Growth inhibitory activity against Renal cancer ACHN cell line was determined; conditions: Homo sapiens
OVCAR-5 = assay: Growth inhibitory activity against Ovarian cancer OVCAR-5 cell line was determined; conditions: Homo sapiens
SK-MEL-28 = assay: Growth inhibitory activity against Melanoma SK-MEL-28 cell line was determined; conditions: Homo sapiens
HL-60 = assay: Growth inhibitory activity against Leukemia HL-60(TB) cell line was determined; conditions: Homo sapiens
SK-MEL-5 = assay: Growth inhibitory activity against Melanoma SK-MEL-5 cell line was determined; conditions: Homo sapiens
HOP-62 = assay: Growth inhibitory activity against non small cell lung cancer HOP-62 cell line was determined; conditions: Homo sapiens
CAKI-1 = assay: Growth inhibitory activity against Renal cancer CAKI-1 cell line was determined; conditions: Homo sapiens
NCI-H522 = assay: Growth inhibitory activity against non small cell lung cancer H522 cell line was determined; conditions: Homo sapiens
MDA-MB-435 = assay: Growth inhibitory activity against Breast cancer MDA-MB-435 cell line was determined; conditions: Homo sapiens
SN12C = assay: Growth inhibitory activity against Renal cancer SN12C cell line was determined; conditions: Homo sapiens
BT-549 = assay: Growth inhibitory activity against Breast cancer BT-549 cell line was determined; conditions: Homo sapiens
NCI-H226 = assay: Growth inhibitory activity against non small cell lung cancer NCI-H226 cell line was determined; conditions: Homo sapiens
NCI-H322M = assay: Growth inhibitory activity against non small cell lung cancer NCI-H322M cell line was determined; conditions: Homo sapiens
RXF 393 = assay: Growth inhibitory activity against Renal cancer RXF 393 cell line was determined; conditions: Homo sapiens
A549 = assay: Growth inhibitory activity against non small cell lung cancer A549/ATCC cells; conditions: Homo sapiens
UACC-62 = assay: Growth inhibitory activity against Melanoma UACC-62 cell line was determined; conditions: Homo sapiens
MOLT-4 = assay: Growth inhibitory activity against Leukemia MOLT-4 cell line was determined; conditions: Homo sapiens
U-251 = assay: Growth inhibitory activity against CNS cancer U251 cell line was determined; conditions: Homo sapiens
NCI-H460 [4] = assay: Growth inhibitory activity against non small cell lung cancer H460 cell line was determined; conditions: Homo sapiens
NCI-H23 = assay: Growth inhibitory activity against non small cell lung cancer NCI-H23 cell line was determined; conditions: Homo sapiens
OVCAR-3 = assay: Growth inhibitory activity against Ovarian cancer OVCAR-3 cell line was determined; conditions: Homo sapiens
SF-268 [5] = assay: Growth inhibitory activity against CNS cancer SF-268 cell line was determined; conditions: Homo sapiens
EKVX = assay: Growth inhibitory activity against non small cell lung cancer EKVX cell line was determined; conditions: Homo sapiens
UACC-257 = assay: Growth inhibitory activity against Melanoma UACC-257 cell line was determined; conditions: Homo sapiens
MCF7 [6] = assay: Growth inhibitory activity against Breast cancer MCF-7 cell line was determined; conditions: Homo sapiens
LOX IMVI = assay: Growth inhibitory activity against Melanoma LOX IMVI cell line; conditions: Homo sapiens
786-0 = assay: Growth inhibitory activity against Renal cancer 786-0 cell line was determined; conditions: Homo sapiens
OVCAR-8 = assay: Growth inhibitory activity against Ovarian cancer OVCAR-8 cell line was determined; conditions: Homo sapiens
SF-295 = assay: Growth inhibitory activity against CNS cancer SF-295 cell line was determined; conditions: Homo sapiens
K562 = assay: Growth inhibitory activity against Leukemia K-562 cell line was determined; conditions: Homo sapiens
MDA-MB-231 = assay: Growth inhibitory activity against Breast cancer MDA-MB-231/ATCC cell line was determined; conditions: Homo sapiens
NCI/ADR-RES = assay: Growth inhibitory activity against Breast cancer NCI/ADR-RES cell line was determined; conditions: Homo sapiens
HCC 2998 = assay: Growth inhibitory activity against colon cancer HCC2998 cell line was determined; conditions: Homo sapiens
CCRF-CEM = assay: Growth inhibitory activity against Leukemia CCRF-CEM cell line was determined; conditions: Homo sapiens
SF-539 = assay: Growth inhibitory activity against CNS cancer SF-539 cell line was determined; conditions: Homo sapiens
SR = assay: Growth inhibitory activity against Leukemia SR cell line was determined; conditions: Homo sapiens
DU-145 = assay: Growth inhibitory activity against Prostate cancer DU-145 cell line was determined; conditions: Homo sapiens

COc1cccc(OC(=O)c2ccccc2Nc2ccnc(C(F)(F)F)c2)c1
GI50 (HOP-92): 5.7 µM
Proliferation (MCF7 [1]): 42%
GI50 (SNB-19): 3.5 µM
GI50 (COLO 205): 2.2 µM
GI50 (M14): 1.3 µM
GI50 (HT-29): 3.7 µM
GI50 (Hs-578T): 4.9 µM
GI50 (SW-620): 4.4 µM
Proliferation (SF-268 [2]): 43%
Proliferation (NCI-H460 [3]): 13%
GI50 (TK-10): 11 µM
GI50 (PC-3): 3.2 µM
GI50 (HCT-15): 2.8 µM
GI50 (RPMI-8226): 1 µM
GI50 (KM12): 2.6 µM
GI50 (HCT-116): 1.1 µM
GI50 (ACHN): 3.4 µM
GI50 (OVCAR-5): 3.5 µM
GI50 (SK-MEL-28): 12 µM
GI50 (HL-60): 2.1 µM
GI50 (SK-MEL-5): 2.2 µM
GI50 (HOP-62): 2.8 µM
GI50 (CAKI-1): 2.7 µM
GI50 (NCI-H522): 7.6 µM
GI50 (MDA-MB-435): 1 µM
GI50 (SN12C): 5.4 µM
GI50 (BT-549): 8.1 µM
GI50 (NCI-H226): 8.1 µM
GI50 (NCI-H322M): 7.4 µM
GI50 (RXF 393): 21 µM
GI50 (A549): 3.2 µM
GI50 (UACC-62): 3.1 µM
GI50 (MOLT-4): 0.69 µM
GI50 (U-251): 2.9 µM
GI50 (NCI-H460 [4]): 4.1 µM
GI50 (NCI-H23): 2 µM
GI50 (OVCAR-3): 1.6 µM
GI50 (SF-268 [5]): 4.7 µM
GI50 (EKVX): 6.6 µM
GI50 (UACC-257): 5.4 µM
GI50 (MCF7 [6]): 7.6 µM
GI50 (LOX IMVI): 1.1 µM
GI50 (786-0): 3.4 µM
GI50 (OVCAR-8): 3.6 µM
GI50 (SF-295): 2.5 µM
GI50 (K562): 0.74 µM
GI50 (MDA-MB-231): 2.1 µM

CSc1ccc(OC(=O)c2ccccc2Nc2ccnc(C(F)(F)F)c2)cc1
Proliferation (MCF7 [1]): 80%
Proliferation (SF-268 [2]): 81%
Proliferation (NCI-H460 [3]): 68%

O=C(Oc1cccc(Cl)c1)c1ccccc1Nc1ccnc(C(F)(F)F)c1
GI50 (HOP-92): 8.7 µM
Proliferation (MCF7 [1]): 12%
GI50 (NCI/ADR-RES): 2.2 µM
GI50 (M14): 1.8 µM
GI50 (Hs-578T): 21 µM
GI50 (SW-620): 4.4 µM
Proliferation (SF-268 [2]): 5%
Proliferation (NCI-H460 [3]): 3%
GI50 (TK-10): 85 µM
GI50 (HCC 2998): 3.5 µM
GI50 (PC-3): 7.4 µM
GI50 (HCT-15): 3.7 µM
GI50 (RPMI-8226): 1.8 µM
GI50 (KM12): 9.5 µM
GI50 (HCT-116): 1.6 µM
GI50 (OVCAR-5): 14 µM
GI50 (HL-60): 13 µM
GI50 (SK-MEL-5): 2.6 µM
GI50 (HOP-62): 25 µM
GI50 (CAKI-1): 2.1 µM
GI50 (NCI-H522): 4.2 µM
GI50 (MDA-MB-435): 3 µM
GI50 (SN12C): 3 µM
GI50 (CCRF-CEM): 0.89 µM
GI50 (BT-549): 6.8 µM
GI50 (NCI-H226): 2.1 µM
GI50 (NCI-H322M): 23 µM
GI50 (A549): 18 µM
GI50 (UACC-62): 2 µM
GI50 (MOLT-4): 0.93 µM
GI50 (NCI-H460 [4]): 11 µM
GI50 (SF-539): 2.8 µM
GI50 (NCI-H23): 2.4 µM
GI50 (OVCAR-3): 3.8 µM
GI50 (SF-268 [5]): 3 µM
GI50 (EKVX): 22 µM
GI50 (MCF7 [6]): 4.8 µM
GI50 (SR): 0.44 µM
GI50 (DU-145): 14 µM
GI50 (786-0): 3.5 µM
GI50 (OVCAR-8): 3.5 µM
GI50 (SF-295): 18 µM
GI50 (K562): 3.2 µM
GI50 (MDA-MB-231): 1.7 µM

O=C(O)c1ccccc1Nc1ccnc(C(F)(F)F)c1
Proliferation (MCF7 [1]): 105%
Proliferation (SF-268 [2]): 102%
Proliferation (NCI-H460 [3]): 100%

COCCCNC(=O)c1ccccc1Nc1ccnc(C(F)(F)F)c1
Proliferation (MCF7 [1]): 70%
Proliferation (SF-268 [2]): 97%
Proliferation (NCI-H460 [3]): 105%

O=C(Oc1c(Cl)cc(Cl)cc1Cl)c1ccccc1Nc1ccnc(C(F)(F)F)c1
GI50 (HOP-92): 100 µM
Proliferation (MCF7 [1]): 12%
GI50 (SNB-19): 7.1 µM
GI50 (COLO 205): 6.3 µM
GI50 (M14): 2.1 µM
GI50 (HT-29): 4.6 µM
GI50 (Hs-578T): 2.6 µM
GI50 (SW-620): 4.6 µM
Proliferation (SF-268 [2]): 55%
Proliferation (NCI-H460 [3]): 9%
GI50 (TK-10): 3.4 µM
GI50 (PC-3): 15 µM
GI50 (HCT-15): 2.7 µM
GI50 (KM12): 4.1 µM
GI50 (HCT-116): 1.7 µM
GI50 (ACHN): 2.4 µM
GI50 (OVCAR-5): 4.1 µM
GI50 (SK-MEL-28): 24 µM
GI50 (HL-60): 3.9 µM
GI50 (SK-MEL-5): 3.1 µM
GI50 (HOP-62): 2.7 µM
GI50 (CAKI-1): 7.1 µM
GI50 (NCI-H522): 5.7 µM
GI50 (MDA-MB-435): 1.6 µM
GI50 (SN12C): 3.1 µM
GI50 (BT-549): 2.4 µM
GI50 (NCI-H226): 5.9 µM
GI50 (NCI-H322M): 20 µM
GI50 (RXF 393): 9.5 µM
GI50 (A549): 3.9 µM
GI50 (UACC-62): 1.7 µM
GI50 (MOLT-4): 100 µM
GI50 (U-251): 3 µM
GI50 (NCI-H460 [4]): 3.4 µM
GI50 (NCI-H23): 2.6 µM
GI50 (OVCAR-3): 4.3 µM
GI50 (SF-268 [5]): 3.9 µM
GI50 (EKVX): 3.3 µM
GI50 (UACC-257): 12 µM
GI50 (MCF7 [6]): 4.7 µM
GI50 (LOX IMVI): 2 µM
GI50 (786-0): 2.9 µM
GI50 (OVCAR-8): 3 µM
GI50 (SF-295): 4.2 µM
GI50 (K562): 2.4 µM
GI50 (MDA-MB-231): 3.2 µM

O=C(Nc1cccnc1)c1ccccc1Nc1ccnc(C(F)(F)F)c1
Proliferation (MCF7 [1]): 56%
Proliferation (SF-268 [2]): 98%
Proliferation (NCI-H460 [3]): 62%
